Test system: 266295-075-R-J1-PDC spheroid viability
Test: Anticancer human tumor 266295-075-R-J1-PDC patient-derived head and neck squamous carcinoma cell line growth inhibition [POLQ]
Settings: spheroids with HUVEC and MSC; for IC50: curve of first compound; for viability, T/C: stronger effect = lower value
Procedure, shortened: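 Growth inhibition in 3D: complex spheroids (tumor PDC, HUVEC, MSC) treated with POLQ inhibitor combinations; where Cmax unknown, highest tested concentration 10 microM, except SN-38 at 1 microM.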

[1] = second compound 0.0316 µM, first compound 0.0316 µM
[2] = second compound 0.0316 µM, first compound 0.1 µM
[3] = second compound 0.0316 µM, first compound 0.316 µM
[4] = second compound 0.0316 µM, first compound 1 µM
[5] = second compound 0.0316 µM, first compound 3.16 µM
[6] = second compound 0.0316 µM, first compound 10 µM
[7] = second compound 0.1 µM, first compound 0.0316 µM
[8] = second compound 0.1 µM, first compound 0.1 µM
[9] = second compound 0.1 µM, first compound 0.316 µM
[10] = second compound 0.1 µM, first compound 1 µM
[11] = second compound 0.1 µM, first compound 3.16 µM
[12] = second compound 0.1 µM, first compound 10 µM
[13] = second compound 0.316 µM, first compound 0.0316 µM
[14] = second compound 0.316 µM, first compound 0.1 µM
[15] = second compound 0.316 µM, first compound 0.316 µM
[16] = second compound 0.316 µM, first compound 1 µM
[17] = second compound 0.316 µM, first compound 3.16 µM
[18] = second compound 0.316 µM, first compound 10 µM
[19] = second compound 1 µM, first compound 0.0316 µM
[20] = second compound 1 µM, first compound 0.1 µM
[21] = second compound 1 µM, first compound 0.316 µM
[22] = second compound 1 µM, first compound 1 µM
[23] = second compound 1 µM, first compound 3.16 µM
[24] = second compound 1 µM, first compound 10 µM
[25] = second compound 3.16 µM, first compound 0.0316 µM
[26] = second compound 3.16 µM, first compound 0.1 µM
[27] = second compound 3.16 µM, first compound 0.316 µM
[28] = second compound 3.16 µM, first compound 1 µM
[29] = second compound 3.16 µM, first compound 3.16 µM
[30] = second compound 3.16 µM, first compound 10 µM
[31] = second compound 10 µM, first compound 0.0316 µM
[32] = second compound 10 µM, first compound 0.1 µM
[33] = second compound 10 µM, first compound 0.316 µM
[34] = second compound 10 µM, first compound 1 µM
[35] = second compound 10 µM, first compound 3.16 µM
[36] = second compound 10 µM, first compound 10 µM
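Also: spheroids exposed to compounds for seven days before readout.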

`CNCc1ccc(-c2[nH]c3cc(F)cc4c3c2CCNC4=O)cc1` + Nc1ccc(C#CCN(C(=O)Cc2ncc(C(F)(F)F)cc2C(F)(F)F)c2ccc(F)cc2)nn1 showed an IC50 (second compound 0.0316 µM) of over 10 µM, an IC50 (second compound 0.1 µM) of over 10 µM and an IC50 (second compound 0.316 µM) of over 10 µM. The IC50 (second compound 1 µM) was over 10 µM, the IC50 (second compound 3.16 µM) was over 10 µM and the IC50 (second compound 10 µM) was over 10 µM. For the same compound, the viability, T/C [1] was 98.8%, the viability, T/C [2] was 89.6% and the viability, T/C [3] was 93.5%. The viability, T/C [4] was 103%, the viability, T/C [5] was 101% and the viability, T/C [6] was 113%. It also gave a viability, T/C [7] of 116%, a viability, T/C [8] of 97% and a viability, T/C [9] of 95.6%. The viability, T/C [10] was 83.2%, the viability, T/C [11] was 102% and the viability, T/C [12] was 111%. It also gave a viability, T/C [13] of 102%, a viability, T/C [14] of 107% and a viability, T/C [15] of 101%. The viability, T/C [16] was 87.2%, the viability, T/C [17] was 98.4% and the viability, T/C [18] was 70.2%. The viability, T/C [19] was 93.3%, the viability, T/C [20] was 86.9% and the viability, T/C [21] was 123%. For the same compound, the viability, T/C [22] was 87.2%, the viability, T/C [23] was 111% and the viability, T/C [24] was 119%. The viability, T/C [25] was 88.1%, the viability, T/C [26] was 97.9% and the viability, T/C [27] was 81.9%. The viability, T/C [28] was 97.8%, the viability, T/C [29] was 100% and the viability, T/C [30] was 105%. For the same compound, the viability, T/C [31] was 92.8%, the viability, T/C [32] was 94.8% and the viability, T/C [33] was 99.5%. It also gave a viability, T/C [34] of 91%, a viability, T/C [35] of 87% and a viability, T/C [36] of 131%.
For `COc1cccc2c1C(=O)c1c(O)c3c(c(O)c1C2=O)CC(O)(C(=O)CO)CC3OC1CC(N)C(O)C(C)O1` (stereo not drawn) + COC1C(OC(N)=O)C(O)C(Oc2ccc3c(O)c(NC(=O)c4ccc(O)c(CC=C(C)C)c4)c(=O)oc3c2C)OC1(C)C, the IC50 (second compound 0.0316 µM) was 3.17 µM, the IC50 (second compound 0.1 µM) was 2.56 µM and the IC50 (second compound 0.316 µM) was 3.45 µM. The IC50 (second compound 1 µM) was 2.64 µM, the IC50 (second compound 3.16 µM) was 2.16 µM and the IC50 (second compound 10 µM) was 3.72 µM. For the same compound, the viability, T/C [1] was 95.5%, the viability, T/C [2] was 104% and the viability, T/C [3] was 82.4%. The viability, T/C [4] was 75.8%, the viability, T/C [5] was 51.8% and the viability, T/C [6] was 2.47%. For the same compound, the viability, T/C [7] was 107%, the viability, T/C [8] was 96% and the viability, T/C [9] was 74.2%. It also gave a viability, T/C [10] of 74.7%, a viability, T/C [11] of 50.4% and a viability, T/C [12] of 2.16%. It also gave a viability, T/C [13] of 102%, a viability, T/C [14] of 96% and a viability, T/C [15] of 76.7%. It also gave a viability, T/C [16] of 74.8%, a viability, T/C [17] of 61.4% and a viability, T/C [18] of 2.49%. The viability, T/C [19] was 103%, the viability, T/C [20] was 91.4% and the viability, T/C [21] was 77%. For the same compound, the viability, T/C [22] was 64.6%, the viability, T/C [23] was 57.5% and the viability, T/C [24] was 2.7%. For the same compound, the viability, T/C [25] was 98.8%, the viability, T/C [26] was 90.4% and the viability, T/C [27] was 78.4%. For the same compound, the viability, T/C [28] was 68.7%, the viability, T/C [29] was 42.3% and the viability, T/C [30] was 2.41%. For the same compound, the viability, T/C [31] was 99.5%, the viability, T/C [32] was 83.1% and the viability, T/C [33] was 83.1%. For the same compound, the viability, T/C [34] was 75%, the viability, T/C [35] was 62.2% and the viability, T/C [36] was 1.87%.
`CCCS(=O)(=O)Nc1ccc(F)c(C(=O)c2c[nH]c3ncc(-c4ccc(Cl)cc4)cc23)c1F` + Nc1ccc(C#CCN(C(=O)Cc2ncc(C(F)(F)F)cc2C(F)(F)F)c2ccc(F)cc2)nn1 was tested, and the IC50 (second compound 0.0316 µM) was over 10 µM, the IC50 (second compound 0.1 µM) was over 10 µM and the IC50 (second compound 0.316 µM) was over 10 µM. The IC50 (second compound 1 µM) was over 10 µM, the IC50 (second compound 3.16 µM) was over 10 µM and the IC50 (second compound 10 µM) was over 10 µM. For the same compound, the viability, T/C [1] was 97.9%, the viability, T/C [2] was 115% and the viability, T/C [3] was 115%. For the same compound, the viability, T/C [4] was 102%, the viability, T/C [5] was 158% and the viability, T/C [6] was 160%. The viability, T/C [7] was 101%, the viability, T/C [8] was 105% and the viability, T/C [9] was 99.2%. For the same compound, the viability, T/C [10] was 116%, the viability, T/C [11] was 156% and the viability, T/C [12] was 145%. For the same compound, the viability, T/C [13] was 102%, the viability, T/C [14] was 103% and the viability, T/C [15] was 82.3%. It also gave a viability, T/C [16] of 105%, a viability, T/C [17] of 143% and a viability, T/C [18] of 131%. The viability, T/C [19] was 122%, the viability, T/C [20] was 92.5% and the viability, T/C [21] was 115%. For the same compound, the viability, T/C [22] was 93.8%, the viability, T/C [23] was 146% and the viability, T/C [24] was 145%. For the same compound, the viability, T/C [25] was 84.8%, the viability, T/C [26] was 135% and the viability, T/C [27] was 121%. The viability, T/C [28] was 109%, the viability, T/C [29] was 142% and the viability, T/C [30] was 160%. It also gave a viability, T/C [31] of 119%, a viability, T/C [32] of 104% and a viability, T/C [33] of 104%. The viability, T/C [34] was 119%, the viability, T/C [35] was 143% and the viability, T/C [36] was 171%.
`CC1COCCN1c1cc(C2(S(C)(=N)=O)CC2)nc(-c2ccnc3[nH]ccc23)n1` (stereo not drawn) + Cc1cccc(N(C)C(=O)C2C(O)CCN2c2nc(C)cc(C(F)(F)F)c2C#N)c1 was tested, and the IC50 (second compound 0.0316 µM) was over 10 µM, the IC50 (second compound 0.1 µM) was over 10 µM and the IC50 (second compound 0.316 µM) was over 10 µM. The IC50 (second compound 1 µM) was 9.31 µM, the IC50 (second compound 3.16 µM) was over 10 µM and the IC50 (second compound 10 µM) was over 10 µM. For the same compound, the viability, T/C [1] was 101%, the viability, T/C [2] was 83.2% and the viability, T/C [3] was 87%. For the same compound, the viability, T/C [4] was 79.8%, the viability, T/C [5] was 81.3% and the viability, T/C [6] was 57%. The viability, T/C [7] was 95.2%, the viability, T/C [8] was 83.5% and the viability, T/C [9] was 79.3%. The viability, T/C [10] was 86.8%, the viability, T/C [11] was 72.1% and the viability, T/C [12] was 55.1%. For the same compound, the viability, T/C [13] was 89.8%, the viability, T/C [14] was 98.6% and the viability, T/C [15] was 111%. For the same compound, the viability, T/C [16] was 81.4%, the viability, T/C [17] was 75.8% and the viability, T/C [18] was 56.7%. It also gave a viability, T/C [19] of 94.4%, a viability, T/C [20] of 100% and a viability, T/C [21] of 96.8%. The viability, T/C [22] was 82.5%, the viability, T/C [23] was 69.8% and the viability, T/C [24] was 48.5%. The viability, T/C [25] was 103%, the viability, T/C [26] was 93.6% and the viability, T/C [27] was 81.4%. The viability, T/C [28] was 89.3%, the viability, T/C [29] was 72.5% and the viability, T/C [30] was 55.2%. The viability, T/C [31] was 92.8%, the viability, T/C [32] was 98.1% and the viability, T/C [33] was 97.1%. The viability, T/C [34] was 94.3%, the viability, T/C [35] was 74.2% and the viability, T/C [36] was 56.2%.
